Experimental data taken from US20250382280A1, “PYRAZOLE DERIVATIVES FOR THE INHIBITION OF PHAGOCYTOSIS” (Canadian Blood Services, priority 2022, published 2025).
Where two headings read alike, the source gives them in different places.

Experiments:
[1] = 60-day toxicity in Balb/c mice (blood biochemistry, histopathology); assay type: in vivo; conditions: after 60 days of treatment
Procedure: (§1) The efficacy of KB-151 and KB-208 at diminishing the platelet level was assessed in three ITP mice models: C57BL/6 (FIG. 7), Balb/c (FIGS. 8A-8B), and CD1 (FIG. 9). […] The toxicity was also assessed using the Balb/c model.

[2] = system: HSP27; assay: signal transduction study, phosphorylated HSP27 level; assay type: cell-based; conditions: no RBC, un-opsonized RBC
Excerpt: (§2) The mechanism of action of KB-208 and KB-151 was investigated further to evaluate the effects on signal transduction. Many kinases were studied including Akt1/2/3 (T308), Akt1/2/3 (S473), CREB, EGF R1 eNOS, ERK1/2, Chk-2, c-Jun, Fgr, GSK-3a/p, GSK-3p, HSP27, p53 (S15), p53 (S46), p53 (S392), JNK 1/2/3, Lck, Lyn, MSK1/2, p70 S6 kinase (T389), p70 S6 kinase (T421/S424), PRAS40, p38a, PDGF RP, PLC-γ1, Src, PYK2, RSK1/2, RSK1/2/3, STAT2, STAT5a/b, WNK1, Yes, STAT1, STAT3 (Y705), STAT3 (S727), β-catenin, STAT6, and HSP60. […] It was then confirmed that KB-208 and KB-151 activate PP2A (in other words they increase its phosphatase activity) (FIG. 14). PP2A is a serine phosphatase that dephosphorylates HSP27. Deregulation of HSP27 also occurs in diseases other than immune cytopenias for example prostate cancer, colorectal cancer, and breast cancer.

[3] = system: attachment of antibody-opsonized RBCs to FcγRs on monocytes; assay: room temperature RBC rosette assay (binding of anti-D opsonized RBCs to monocytes); assay type: cell-based; conditions: 100 μM
Excerpt: Fluorescent dye-labelled RBCs opsonized with anti-D were used to study the mechanism of phagocytosis inhibition using a room temperature assay to look for RBC rosettes (attachment of antibody-opsonized RBCs' to FcγRs) in the presence of monocytes. IVIg was used as the positive control and no treatment as the negative control. In the negative control, monocytes bound to the RBC and initiated phagocytosis (FIGS. 11A and 11E).

[4] = system: PBMC, HEPG2, and HEK-293; assay: LDH assay at higher concentrations (up to 250 μM); assay type: cell-based; conditions: PBMCs, HEPG2, HEK293
Procedure: (§3) Cell lines (HepG2, liver-derived, HB-8065™; HEK293, kidney-derived cell line, CRL-1573™) were purchased from the ATCC. Both cell lines were cultured in Eagle's Minimum Essential Medium supplemented with 10% fetal calf serum.
(§4) To further determine the potential for toxicity of compounds KB-151 and KB-208, additional toxicity studies were done using higher concentrations, up to 250 μM of each compound, using LDH and MTT (FIGS. 4A-4D), and an apoptosis assay (Annexin V/PI) (FIGS. 5A-5C).

[5] = system: FcγRI (CD64), FcγRII (CD32), and FcγRIII (CD16); assay: FcγR expression on monocytes with monoclonal antibodies; assay type: cell-based; conditions: monocytes untreated or treated
Procedure: Due to observing similar results as IVIG, the binding of KB-208 and KB-151 to FcγR was evaluated to determine the attachment between KB-208 or KB-151 and FcγR. Three monoclonal antibodies each specific for FcγRI (CD64), FcγRII (CD32), and FcγRIII (CD16) were used to test the resulting expression of FcγRI, FcγRII and FcγRIII.

[6] = system: PBMC, HEPG2, and HEK-293; assay: MTT assay at higher concentrations (up to 250 μM); assay type: cell-based, human; conditions: PBMCs, HEPG2, HEK293
Procedure: as §3, §4

[7] = system: ITP mice model; assay: anti-CD41 antibody ITP mouse model (platelet count); assay type: in vivo; conditions: Balb/c, day 4 after two treatment doses on days 2 and 3, 100 μM s.c. twice a day, vs CD-41 group (*P≤0.05)
Procedure: An in vivo phagocytosis inhibition assay was performed with KB-151 in a mouse model, Balb/c animals (FIG. 6A and FIG. 6B). A dose of 100 μM of KB-151 was injected to 20.5 g mice at 500 μL based on the following calculations:
A dose-escalation anti-CD41 antibody ITP mouse model was used.
as §1

[8] = system: PBMC, HEPG2, and HEK-293; assay: apoptosis assay (Annexin V/PI); assay type: cell-based, human; conditions: 250 μM, 1 hour; PBMCs, HEPG2, HEK293
Procedure: PBMC, HEPG2, and HEK-293 cells were treated for 1 hour with the compound KB-151 or the compound KB-208 at a 250 μM concentration. 100 μM thimerosal was used as a positive control for viability (diluted in RPMI). Staining with Annexin V and PI was performed according to the manufacturer's procedure for the Annexin-V-FLUOS Staining Kit (Sigma) and samples were run through an SP6800 Spectral Cytometer.
as §4

[9] = system: phagocytosis of anti-D-opsonized Rh(D+) red cells by monocytes; assay: monocyte monolayer assay (MMA), in vitro phagocytosis assay; assay type: cell-based, human; set-up: key to Phagocytic index (PI): number of phagocytosed RBCs per 100 monocytes; conditions: for Phagocytic index (PI): PI = (# of phagocytic red blood cells)/(300 monocytes) * 100; for IC50 / EC50: dose-inhibitory response; for IC50: 0.5-100 μM, read-out: IC50 for inhibition of phagocytosis; for effect on IVIg dose-response curve (cooperation/synergy with IVIg): compound added at its IC50 concentration to each IVIg concentration
Procedure: The MMA to screen compounds for their ability to inhibit phagocytosis was performed as previously described (Purohit, M. K. et al., Bioorg. Med. Chem. Lett. 2013; 23:2324-7; and Purohit, M. K. et al., Bioorg. Med. Chem. 2014; 22:2739-52.). Briefly, Mononuclear cells (PBMCs) were layered onto chamber slides and monocytes purified by adherence after 1 hr at 37° C. with 5% CO2. Drugs were solubilized in 100% DMSO and then diluted in Roswell Park Memorial Institute (RPMI) to the final concentration of 5 μM, as previously reported (8,9). Corresponding dimethyl sulfoxide (DMSO) volumes in RPMI medium were used as a control. After one hour, indicator Rh-positive red cells opsonized with anti-RhD were added to the chamber slides and then further incubated for 2 hours before fixing and counting phagocytosed red blood cells (RBCs) using phase-contrast microscopy. As a positive control for inhibition, Intravenous immunoglobulin (IVIg) was used, known to inhibit phagocytosis due to blocking of FcγRs. The phagocytosis index (PI) was determined as the number of phagocytosed RBCs in 100 monocytes. The percent inhibition of phagocytosis was determined by comparing the PI in each treated sample to the PI in the untreated sample, which was determined by normalizing the PI concentration in each treated sample (phagocytosis of opsonized RBCs with vehicle only, representing 100 percent phagocytosis.
Concentrations included 100 μM, 50 μM, 25 μM, 10 μM, 5 μM, 2.5 μM, 1 μM, and 0.5 μM.
The 80 selected pyrazole core compounds were screened using a concentration of 5 μM in the in vitro phagocytosis assay, referred to as the monocyte monolayer assay (MMA). Compounds were compared to a standard intravenous immunoglobulin (IVIg) at a concentration of 1 mg/mL.

[10] = system: PP2A; assay: PP2A phosphatase activity; assay type: biochemical
Excerpt: as §2

[11] = Homo sapiens, Monocyte, 5 μM compound, screening of the 80 compounds, read-out: Average inhibition (% ± standard deviation)
[12] = Homo sapiens, Monocyte, 5 μM, anti-D-opsonized Rh(D+) red cells, read-out: Inhibition percentage

| SMILES | histopathology of liver, heart, spleen, lymph nodes, and kidney [1] | toxicity (blood biochemistry) [1] | effect on HSP27 phosphorylation [2] | binding of monocytes to anti-D opsonized RBCs and phagocytosis [3] | toxicity by LDH [4] | binding to Fcγ receptors (FcγRI, FcγRII, FcγRIII expression on monocytes) [5] | toxicity by MTT [6] | platelet (PLT) count [7] | toxicity by apoptosis assay (Annexin V/PI) [8] | Phagocytic index (PI) ([9]; 5 μM) | IC50 ([9]; Homo sapiens, Monocyte) [µM] | inhibition at 5 µM [9, 11] [%] | inhibition at 5 µM [9, 12] [%] | EC50 ([9]; Homo sapiens, Monocyte, unit inferred) [µM] | effect on IVIg dose-response curve (cooperation/synergy with IVIg) [9] | IC50 [9] [µM] | PP2A phosphatase activity [10] | EC50 ([9]; Homo sapiens, Monocyte) [µM] |
| --- | --- | --- | --- | --- | --- | --- | --- | --- | --- | --- | --- | --- | --- | --- | --- | --- | --- | --- |
| CCOC(=O)c1nn(-c2ccccc2)c(C#N)c1NC(=O)c1nn(CC)cc1Br [KB-151] | showed abnormalities nor any toxicity | Minimal toxicity | dephosphorylate HSP27 | inhibit the binding and inhibit phagocytosis similarly to IVIg | low to no toxicity | independent of binding the three tested Fcγ receptors | low to no toxicity | significant increase | low to no toxicity | 17 | 2.71 ± 0.786 | 80 ± 3.68 | 80 | 8 ± 4 | no effect | 3 | activate PP2A | – |
| COC(=O)CC1CCN(C(=O)c2cc(-c3cccs3)nn2-c2ccccc2)CC1 [KB-208] | – | – | dephosphorylate HSP27 | inhibit the binding and inhibit phagocytosis similarly to IVIg | low to no toxicity | independent of binding the three tested Fcγ receptors | low to no toxicity | – | low to no toxicity | 7 | 4.21 ± 1.24 | 81 ± 3.43 | 81 | – | no effect | 4 | activate PP2A | 5 ± 0.2 |
| O=C(Nc1nccs1)c1cnn(-c2ccccc2)c1-n1cccc1 [KB-210] | – | – | – | – | – | – | – | – | – | 11 | 22.1 | 69 ± 5.32 | 69 | – | – | – | – | > 10 |
| FC(F)(F)c1cc(-c2cccs2)nc(-n2nc(C(F)(F)F)c3c2CCC3)n1 [KB-211] | – | – | – | – | – | – | – | – | – | – | – | 33 ± 2.31 | – | – | – | – | – | – |
| CSc1cccc(NC(=O)c2cnn(C)c2-n2cccc2)c1 [KB-212] | – | – | – | – | – | – | – | – | – | 19 | – | 47 ± 9.67 | 47 | – | – | – | – | – |
| COc1ccc(-c2cc(C(=O)NCCc3c[nH]c4ccccc34)[nH]n2)cc1 [KB-213] | – | – | – | – | – | – | – | – | – | 13 | – | 64 ± 8.74 | 64 | – | – | – | – | – |
